Reference: PubChem BioAssay AID328 (DTP/NCI, 2004)
Where “and” joins values, the source holds several entries; their conditions need not be identical. Equal values may be shown once. Inconclusive results and toxic doses are left out. The calls were made as follows: active = survival T/C of 150% or more; inactive = T/C below 125% in these data.

System: BDF1 mice, P388 leukemia ip, median survival T/C
Experiment: NCI In Vivo Anticancer Drug Screen. Data for tumor model P388 Leukemia (intraperitoneal) in B6D2F1 (BDF1) mice
Details: endpoint: median survival time, higher = longer survival
Procedure, shortened: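 In tumour-bearing mice, survival after compound treatment is set against the vehicle group and given as a quotient.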

[1] = dose: 200.0 mg/kg/injection, schedule: Q01DX009 (ip), vehicle: saline with Tween-80
[2] = dose: 400.0 mg/kg/injection, schedule: Q04DX003 (ip), vehicle: saline with Tween-80
[3] = dose: 25.0 mg/kg/injection, schedule: Q01DX009 (ip), vehicle: Klucel (hydroxypropylcellulose) (HPC)
[4] = dose: 25.0 mg/kg/injection, schedule: Q04DX003 (ip), vehicle: Klucel (hydroxypropylcellulose) (HPC)
[5] = dose: 50.0 mg/kg/injection, schedule: Q04DX003 (ip), vehicle: Klucel (hydroxypropylcellulose) (HPC)
[6] = dose: 100.0 mg/kg/injection, schedule: Q04DX003 (ip), vehicle: Klucel (hydroxypropylcellulose) (HPC)
[7] = dose: 50.0 mg/kg/injection, schedule: Q04DX003 (ip), vehicle: water
[8] = dose: 100.0 mg/kg/injection, schedule: Q04DX003 (ip), vehicle: water
[9] = dose: 200.0 mg/kg/injection, schedule: Q04DX003 (ip), vehicle: water
[10] = dose: 200.0 mg/kg/injection, schedule: Q04DX003 (ip), vehicle: Klucel (hydroxypropylcellulose) (HPC)
[11] = dose: 400.0 mg/kg/injection, schedule: Q04DX003 (ip), vehicle: Klucel (hydroxypropylcellulose) (HPC)
[12] = dose: 50.0 mg/kg/injection, schedule: Q01DX009 (ip), vehicle: saline with Tween-80
[13] = dose: 25.0 mg/kg/injection, schedule: Q01DX009 (ip), vehicle: saline with Tween-80
[14] = dose: 100.0 mg/kg/injection, schedule: Q01DX009 (ip), vehicle: Klucel (hydroxypropylcellulose) (HPC)
[15] = dose: 12.5 mg/kg/injection, schedule: Q01DX009 (ip), vehicle: saline with Tween-80

Measured: T/C

CCCCCCCC/C=C\CCCCCCCC(=O)OC
inactive: dose: 100.0 mg/kg/injection, schedule: Q04DX003 (ip), vehicle: saline with Tween-80 96 % of control | [1] 120 % of control | dose: 200.0 mg/kg/injection, schedule: Q04DX003 (ip), vehicle: saline with Tween-80 103 % of control | [2] 88 % of control

C=C1C(=O)OCC2C(C(=O)O)=CC3C(C)C(C)=CC123 (configuration not stated)
inactive: dose: 2.5 mg/kg/injection, schedule: Q01DX009 (ip), vehicle: other 105 % of control | dose: 5.0 mg/kg/injection, schedule: Q04DX003 (ip), vehicle: other 117 % of control | dose: 10.0 mg/kg/injection, schedule: Q01DX009 (ip), vehicle: Klucel (hydroxypropylcellulose) (HPC) 105 % of control and 121 % of control | dose: 10.0 mg/kg/injection, schedule: Q04DX003 (ip), vehicle: other 111 % of control | dose: 20.0 mg/kg/injection, schedule: Q01DX009 (ip), vehicle: Klucel (hydroxypropylcellulose) (HPC) 117 % of control and 120 % of control | dose: 20.0 mg/kg/injection, schedule: Q04DX003 (ip), vehicle: other 124 % of control | dose: 40.0 mg/kg/injection, schedule: Q01DX009 (ip), vehicle: Klucel (hydroxypropylcellulose) (HPC) 121 % of control | dose: 40.0 mg/kg/injection, schedule: Q04DX003 (ip), vehicle: other 119 % of control

Cc1ncc(CO)c(C2NOCc3ccc(Cl)cc32)c1O (configuration not stated)
inactive: dose: 12.5 mg/kg/injection, schedule: Q01DX009 (ip), vehicle: Klucel (hydroxypropylcellulose) (HPC) 104 % of control | [3] 86 % of control | [4] 111 % of control | [5] 105 % of control | [6] 122 % of control

CCC1C/C(=C\NC(N)=O)C(=O)O1 (configuration not stated)
inactive: dose: 6.25 mg/kg/injection, schedule: Q04DX003 (ip), vehicle: saline with Tween-80 96 % of control | dose: 12.5 mg/kg/injection, schedule: Q04DX003 (ip), vehicle: saline with Tween-80 111 % of control | dose: 25.0 mg/kg/injection, schedule: Q04DX003 (ip), vehicle: saline with Tween-80 104 % of control | dose: 50.0 mg/kg/injection, schedule: Q04DX003 (ip), vehicle: saline with Tween-80 104 % of control | [2] 86 % of control

COc1cccc(/C=C/C(=O)O)c1OC
inactive: dose: 25.0 mg/kg/injection, schedule: Q04DX003 (ip), vehicle: water 106 % of control | [7] 103 % of control | [8] 112 % of control | [9] 106 % of control | dose: 400.0 mg/kg/injection, schedule: Q04DX003 (ip), vehicle: water 97 % of control

O=C(NC1CCCCC1)OCC#CC#CCOC(=O)NC1CCCCC1
inactive: [6] 95 % of control | [10] 100 % of control

Cc1cccc(NNC(=S)Nc2ccccc2)c1
inactive: dose: 100.0 mg/kg/injection, schedule: Q01DX009 (ip), vehicle: saline with Tween-80 104 % of control | [1] 95 % of control | dose: 400.0 mg/kg/injection, schedule: Q01DX009 (ip), vehicle: saline with Tween-80 104 % of control

CN(Nc1c([N+](=O)[O-])cc([N+](=O)[O-])cc1[N+](=O)[O-])c1cccc2ccccc12
inactive: [4] 109 % of control | [5] 100 % of control | [6] 100 % of control | [10] 86 % of control | [11] 90 % of control

O.Oc1ccccc1C=NCCC[N-]CCCN=Cc1ccccc1O.[Co]
inactive: [12] 114 % of control

CN=C(N)Nc1ccc(C(=O)Oc2ccc([N+](=O)[O-])cc2)cc1
inactive: dose: 12.5 mg/kg/injection, schedule: Q01DX009 (ip), vehicle: water 89 % of control | dose: 25.0 mg/kg/injection, schedule: Q01DX009 (ip), vehicle: water 95 % of control | dose: 50.0 mg/kg/injection, schedule: Q01DX009 (ip), vehicle: water 87 % of control | [7] 122 % of control | [8] 110 % of control | dose: 200.0 mg/kg/injection, schedule: Q01DX009 (ip), vehicle: water 105 % of control | [9] 113 % of control

NC(=O)C(Br)CBr (configuration not stated)
inactive: dose: 1.5 mg/kg/injection, schedule: Q01DX009 (ip), vehicle: saline with Tween-80 103 % of control | dose: 3.0 mg/kg/injection, schedule: Q01DX009 (ip), vehicle: saline with Tween-80 98 % of control | dose: 12.0 mg/kg/injection, schedule: Q01DX009 (ip), vehicle: saline with Tween-80 107 % of control and 115 % of control | [3] 114 % of control | [13] 105 % of control | dose: 25.0 mg/kg/injection, schedule: Q01DX009 (ip), vehicle: saline 99 % of control | dose: 50.0 mg/kg/injection, schedule: Q01DX009 (ip), vehicle: Klucel (hydroxypropylcellulose) (HPC) 94 % of control | dose: 50.0 mg/kg/injection, schedule: Q01DX009 (ip), vehicle: saline 99 % of control | [14] 114 % of control | dose: 100.0 mg/kg/injection, schedule: Q01DX009 (ip), vehicle: saline 92 % of control

CCCCCCCS(=O)CCCCCCC
inactive: dose: 6.25 mg/kg/injection, schedule: Q01DX009 (ip), vehicle: saline with Tween-80 102 % of control | [15] 104 % of control | [13] 95 % of control | [12] 104 % of control

CCOC(=O)C/C(C)=N/NC(=O)CC(=O)N/N=C(\C)CC(=O)OCC
inactive: dose: 75.0 mg/kg/injection, schedule: Q01DX009 (ip), vehicle: saline 109 % of control | dose: 150.0 mg/kg/injection, schedule: Q01DX009 (ip), vehicle: saline 105 % of control | dose: 300.0 mg/kg/injection, schedule: Q01DX009 (ip), vehicle: saline 103 % of control

CS(=O)(=O)OCCCCOS(C)(=O)=O
inactive: dose: 6.25 mg/kg/injection, schedule: Q01DX010 (ip), vehicle: saline 100 % of control and 119 % of control | [15] 113 % of control | dose: 12.5 mg/kg/injection, schedule: Q01DX010 (ip), vehicle: saline 122 % of control | dose: 20.0 mg/kg/injection, schedule: Q01DX010 (ip), vehicle: other 120 % of control | [13] 104 % of control | dose: 40.0 mg/kg/injection, schedule: Q01DX010 (ip), vehicle: other 120 % of control | [12] 104 % of control | dose: 60.0 mg/kg/injection, schedule: Q01DX010 (ip), vehicle: other 120 % of control

Cc1ccc(-c2cc(-c3ccccc3)n(-c3ccccc3)n2)cc1
inactive: dose: 264.0 mg/kg/injection, schedule: Q04DX003 (ip), vehicle: Klucel (hydroxypropylcellulose) (HPC) 108 % of control and 109 % of control | [11] 104 % of control and 116 % of control

O=C1Nc2ccccc2C12Nc1cccnc1N2 (configuration not stated)
inactive: dose: 50.0 mg/kg/injection, schedule: Q01DX001 (ip), vehicle: saline with Tween-80 91 % of control | dose: 100.0 mg/kg/injection, schedule: Q01DX001 (ip), vehicle: saline with Tween-80 87 % of control | dose: 200.0 mg/kg/injection, schedule: Q01DX001 (ip), vehicle: saline with Tween-80 91 % of control

CCOC(=O)c1ccc(OP(=O)(N(C)C)N(C)C)cc1
inactive: [15] 101 % of control | [13] 110 % of control | [12] 100 % of control and 119 % of control

COn1nnc2c([N+](=O)[O-])cccc21
inactive: [12] 109 % of control

NC(=O)C(N)=O
inactive: [14] 103 % of control | dose: 200.0 mg/kg/injection, schedule: Q01DX009 (ip), vehicle: Klucel (hydroxypropylcellulose) (HPC) 93 % of control | dose: 400.0 mg/kg/injection, schedule: Q01DX009 (ip), vehicle: Klucel (hydroxypropylcellulose) (HPC) 109 % of control
